Reference: PMC6017000, “Distribution Assessments of Coumarins from Angelicae Pubescentis Radix in Rat Cerebrospinal Fluid and Brain by Liquid Chromatography Tandem Mass Spectrometry Analysis” (Molecules : A Journal of Synthetic Chemistry and Natural …, 2018)
Where two headings read alike, the source gives them in different places.

What was measured:
[1] = Stability of QC samples in rat brain homogenate (freeze-thaw, room temperature); type: physicochemical; conditions: percentage remaining, n = 5; for Stability room temperature: room temperature 24 h; for Stability Freeze-thaw: three freeze-thaw cycles
[2] = system: in vitro BBB model; design: method as in PMID 26121397; conditions: based on bidirectional Papp values; cited from earlier work
[3] = Rat CSF distribution after oral administration of APRE (UPLC-MS/MS)
Protocol: (§1) Aliquots of 50 μL CSF samples with IS (10 μL, 200 ng/mL) were extracted with 600 μL ethyl acetate.
(§2) The UPLC-MS/MS system consisted of a Shimadzu Nexera UPLC instrument connected to a Shimadzu LCMS-8050 mass spectrometer via the electrospray ionization interface (Shimadzu Corp., Kyoto, Japan). Samples were separated on an ACQUITY UPLC BEH RP18 column (2.1 × 100 mm, 1.7 µm, Waters, Milford, MA, USA) equipped with a BEH RP18 guard column (2.1 × 5 mm, 1.7 µm, Waters, Milford, MA, USA). The column temperature was 30 °C, and the flow rate was 0.4 mL/min. The sample injection volume was 5 µL. The mobile phases consisted of 0.1% (v/v) formic acid in water (A) and ACN (B). […] The precursor ion, product ion, Q1, Q3, CE and DT were optimized.
(§3) The time schedule included 9 time-points, and six rats were sampled at each time-point. The rats were fasted overnight with free access to water before the experiment. APRE was suspended with the normal saline and orally administered to the rats at a single dose of 4 g/kg. The animals had free access to water during the experiment.
(§4) Rats were anesthetized by an intraperitoneal dose of chloral hydrate (350 mg/kg) at 0.25, 0.5, 1, 1.5, 2, 4, 6, 8, 12 h after oral administration of APRE. A dorsal midline cutaneous incision was made, and the muscle at the craniocervical junction was bluntly dissected to expose the atlanto-occipital membrane. The cisterna magna was punctured with a thin syringe needle, and a microinjector connected with the needle was used to collect the interior CSF carefully [27]. Clear CSF was transferred to a clean microtube and frozen at −80 °C until further use. Blood contaminated samples were excluded.
(§5) Results were expressed as the mean ± standard deviation (SD). The UPLC-MS/MS data were processed with Labsolutions 5.65 software (Shimadzu Corp., Kyoto, Japan). The pharmacokinetic parameters were calculated with the Drug and Statistics 2.0 software (Mathematical Pharmacology Professional Committee of China, Shanghai, China).

[4] = Rat brain distribution after oral administration of APRE (UPLC-MS/MS); conditions: for log BBexpt.: log (AUC0→∞/brain/AUC0→∞/plasma), oral APRE; for log BBexpt. / Tmax / half-life: rat; for AUC0→t / AUC0→∞ / CLz/F / Vz/F: rat brain, oral APRE 4 g/kg, mean ± SD, n = 6; for Tmax / half-life: brain, po, 4 g/kg
Protocol: (§6) Each weighed brain sample was homogenized with a 2-fold volume of normal saline solution. IS solution (10 μL, 200 ng/mL) was added to 300 μL of the homogenate. The mixture was then extracted with a 3-fold volume of ethyl acetate. The mixture was vortexed for 1 min and centrifuged at 16,000× g for 10 min. The supernatant was transferred out and dried under a gentle constant flow of nitrogen. The residue was then dissolved with 100 μL of MeOH and ultrasonically (power 250 W, frequency 40 KHz) extracted for 10 min. After centrifugation at 16,000× g for 10 min, the supernatant was drawn out into a clean vial, and 5 μL of each were injected into the UPLC–MS/MS system for analysis.
(§7) The UPLC-MS/MS system consisted of a Shimadzu Nexera UPLC instrument connected to a Shimadzu LCMS-8050 mass spectrometer via the electrospray ionization interface (Shimadzu Corp., Kyoto, Japan). Samples were separated on an ACQUITY UPLC BEH RP18 column (2.1 × 100 mm, 1.7 µm, Waters, Milford, MA, USA) equipped with a BEH RP18 guard column (2.1 × 5 mm, 1.7 µm, Waters, Milford, MA, USA). The column temperature was 30 °C, and the flow rate was 0.4 mL/min. The sample injection volume was 5 µL. The mobile phases consisted of 0.1% (v/v) formic acid in water (A) and ACN (B). The LC gradient elution program and mass working parameters were the same as our previous report [6]. […] The precursor ion, product ion, Q1, Q3, CE and DT were optimized.
as §3
(§8) Cardiac perfusion was carried out quickly with physiological saline after CSF collection at each time-point. The rat brains were separated, weighed and then stored at −80 °C until treatment.
as §5

[5] = Stability of QC samples in aCSF (freeze-thaw, room temperature); type: physicochemical; conditions: percentage remaining, n = 5; for Stability room temperature: room temperature 24 h; for Stability Freeze-thaw: three freeze-thaw cycles
[6] = design: method as in PMID 28654868; conditions: rat plasma, oral APRE; cited from earlier work
[7] = rat, in vivo, po
Protocol: as §1, §2, §3, §4, §5

[8] = rat, in vivo, po; remark: listed apart in the source
Protocol: as §6, §7, §3, §8, §5

SMILES | Stability room temperature ([1]; rat brain QC 5 ng/mL) [%] | Stability Freeze-thaw ([1]; rat brain QC 5 ng/mL) [%] | Stability room temperature ([1]; rat brain QC 80 ng/mL) [%] | Stability Freeze-thaw ([1]; rat brain QC 80 ng/mL) [%] | Stability room temperature ([1]; rat brain QC 160 ng/mL) [%] | Stability Freeze-thaw ([1]; rat brain QC 160 ng/mL) [%] | log BBexpt. [4] | AUC0→t [4] [µg·h/kg] | AUC0→∞ [4] [µg·h/kg] | CLz/F [4] [g/h/kg] | Vz/F [4] [g/kg] | Tmax [4] [h] | half-life [4] [h] | further results
CC(C)=CCOc1c2ccoc2cc2oc(=O)ccc12 [Compound 4, isoimperatorin] | 91.59±10.74 | 104.96±13.66 | 88.65±10.02 | 93.10±4.03 | 86.85±3.37 | 89.68±3.96 | −0.16 | 15.51 ± 4.82 | 21.56 ± 14.56 | 52.86 ± 24.79 | 245.44 ± 108.54 | 0.33 ± 0.13 | 3.54 ± 1.35 | absorption classification across the in vitro BBB model [2]: moderately-absorbed; MRM response in CSF ([3]; rat CSF after oral APRE): under LLOQ
CC=C(C)C(=O)OC(C(O)c1cc2ccc(=O)oc2cc1OC)C(C)(C)O (centres unmarked) [Compound 9, angelol B] | 96.24±7.79 | 101.51±11.81 | 97.77±8.23 | 95.20±9.40 | 96.20±7.07 | 102.98±8.06 | −0.44 | 21.06 ± 8.70 | 25.06 ± 8.03 | 301.26 ± 92.33 | 1299.16 ± 842.00 | 0.29 ± 0.1 | 2.77 ± 1.15 | Stability room temperature ([5]; aCSF QC 5 ng/mL): 97.45±4.87%; Stability Freeze-thaw ([5]; aCSF QC 5 ng/mL): 95.14±6.53%; Stability room temperature ([5]; aCSF QC 40 ng/mL): 95.67±3.47%; Stability Freeze-thaw ([5]; aCSF QC 40 ng/mL): 95.36±7.29%; Stability room temperature ([5]; aCSF QC 80 ng/mL): 96.66±9.22%; Stability Freeze-thaw ([5]; aCSF QC 80 ng/mL): 96.89±4.68%; CL in plasma [6]: 110.26 ± 39.27 g/h/kg; t1/2 in plasma [6]: 6.63 ± 4.37 h; total amount percentage of CSF/plasma ([3]; (0.48 × AUC0→∞/CSF)/(16 × AUC0→∞/plasma), rat, oral APRE): greater than 1%; AUC(0-inf) ([3]; rat, CSF, po, 4 g/kg): 0.0282 ± 0.00394 µg·h/mL; AUC(0-t) ([3]; rat, CSF, po, 4 g/kg): 0.02 ± 0.00335 µg·h/mL; Cmax ([3]; rat, CSF, po, 4 g/kg): 7.65 ± 4.14 ng/mL; Tmax ([3]; rat, CSF, po, 4 g/kg): 0.38 ± 0.31 h; half-life ([3]; rat, CSF, po, 4 g/kg): 7.02 ± 2.51 h
CC(C)=CCOc1c2occc2cc2ccc(=O)oc12 [imperatorin] |  |  |  |  |  |  |  |  |  |  |  |  |  | MRM response in CSF [7]: under LLOQ; MRM response in brain [8]: under LLOQ
